Data published in patent publication US20200347043A1, “MODULATORS OF THE INTEGRATED STRESS PATHWAY” (Calico Life Sciences LLC, priority 2019, published 2020).

system: HEK293T cells carrying the ATF4 luciferase reporter; assay: ATF4-Luc assay (in vitro model of VWMD); format: cell-based, human; conditions: Homo sapiens, HEK-293T, 1 μg/mL tunicamycin, 7 hours, One Glo luminescence
Experimental: In order to test exemplary compounds of the invention in a cellular context, a stable VWMD cell line was first constructed. The ATF4 reporter was prepared by fusing the human full-length ATF4 5′-UTR (NCBI Accession No. BC022088.2) in front of the firefly luciferase (FLuc) coding sequence lacking the initiator methionine as described in Sidrauski et al (eLife 2013). The construct was used to produce recombinant retroviruses using standard methods and the resulting viral supernatant was used to transduce HEK293T cells, which were then subsequently selected with puromycin to generate a stable cell line.
HEK293T cells carrying the ATF4 luciferase reporter were plated on polylysine coated 384-well plates (Greiner Bio-one) at 30,000 cells per well. Cells were treated the next day with 1 μg/mL tunicamycin and 200 nM of a compound of Formula (I) for 7 hours. Luminescence was measured using One Glo (Promega) as specified by the manufacturer. Cells were maintained in DMEM with L-glutamine supplemented with 10% heat-inactivated FBS (Gibco) and Antibiotic-Antimycotic solution (Gibco).
Table 4 below summarizes the EC50 data obtained using the ATF4-Luc assay for exemplary compounds of the invention.

SMILES	EC50 [nM]
O=C(N[C@@H]1C[C@@H]2O[C@H]1C[C@H]2c1nnc([C@H]2C[C@@H](OC(F)(F)F)C2)o1)[C@H]1C[C@@H](O)c2cc(Cl)ccc2O1 (mixture of isomers) [Compound 187]	50 to 250
O=C(N[C@H]1C[C@@H](OC(F)(F)F)C1)[C@H]1C[C@H]2O[C@@H]1C[C@@H]2NC(=O)[C@H]1C[C@@H](O)c2cc(Cl)ccc2O1 (mixture of isomers) [Compound 219, (2R,4R)-6-chloro-4-hydroxy-N-[(1RS,2SR,4RS,5SR)-5-{[cis-3-(trifluoromethoxy)cyclobutyl]carbamoyl}-7-oxabicyclo[2.2.1]heptan-2-yl]-3,4-dihydro-2H-1-benzopyran-2-carboxamide]	500 to 2000
O=C1C[C@H](C(=O)NC23CC(NC(=O)[C@@H]4C[C@@H]4COC(F)(F)F)(C2)C3)Oc2ccc(Cl)cc21 (mixture of isomers) [Compound 296, (2R)-6-chloro-4-oxo-N-[3-({(1RS,2SR)-2-[(trifluoromethoxy)methyl]cyclopropane-1-carbonyl}amino)bicyclo[1.1.1]pentan-1-yl]-3,4-dihydro-2H-1-benzopyran-2-carboxamide]	500 to 2000
O=C(NC12CC(NC(=O)[C@@H]3C[C@@H]3COC(F)(F)F)(C1)C2)[C@H]1C[C@@H](O)c2cc(Cl)ccc2O1 (mixture of isomers) [Compound 299, (2R,4R)-6-chloro-4-hydroxy-N-[3-({(1RS,2SR)-2-[(trifluoromethoxy)methyl]cyclopropane-1-carbonyl}amino)bicyclo[1.1.1]pentan-1-yl]-3,4-dihydro-2H-1-benzopyran-2-carboxamide]	500 to 2000
O=C(NCc1ccc(C(F)(F)F)cn1)[C@H]1C[C@H]2O[C@@H]1C[C@@H]2NC(=O)[C@H]1C[C@@H](O)c2cc(Cl)ccc2O1 (mixture of isomers) [Compound 313, (2R,4R)-6-chloro-4-hydroxy-N-[(1RS,2SR,4RS,5SR)-5-({[5-(trifluoromethyl)pyridin-2-yl]methyl}carbamoyl)-7-oxabicyclo[2.2.1]heptan-2-yl]-3,4-dihydro-2H-1-benzopyran-2-carboxamide]	250 to 500
O=C(COc1ccc(Cl)c(F)c1)NC12CC(C(=O)NC[C@H]3C[C@@H](O)c4cc(Cl)ccc4O3)(C1)C2 (racemic) [Compound 104, 3-[2-(4-chloro-3-fluorophenoxy)acetamido]-N-{[rac-(2R,4R)-6-chloro-4-hydroxy-3,4-dihydro-2H-1-benzopyran-2-yl]methyl}bicyclo[1.1.1]pentane-1-carboxamide]	10 to 50
O=C(CO[C@H]1C[C@@H](OC(F)(F)F)C1)NC12CC(NC(=O)[C@H]3C[C@@H](O)c4cc(Cl)ccc4O3)(C1)C2 (racemic) [Compound 114, rac-(2R,4R)-6-chloro-4-hydroxy-N-[3-(2-{[(1s,3s)-3-(trifluoromethoxy)cyclobutyl]oxy}acetamido)bicyclo[1.1.1]pentan-1-yl]-3,4-dihydro-2H-1-benzopyran-2-carboxamide]	< 10
O=C(NCc1ccc(C(F)(F)F)cc1)[C@@H]1CC[C@@H](NC(=O)[C@H]2C[C@@H](O)c3cc(Cl)ccc3O2)CO1 (racemic) [Compound 121, (2R,4R)-6-chloro-4-hydroxy-N-[(3R,6S)-6-({[4-(trifluoromethyl)phenyl]methyl}carbamoyl)oxan-3-yl]-3,4-dihydro-2H-1-benzopyran-2-carboxamide and (2S,4S)-6-chloro-4-hydroxy-N-[(3R,6S)-6-({[4-(trifluoromethyl)phenyl]methyl}carbamoyl)oxan-3-yl]-3,4-dihydro-2H-1-benzopyran-2-carboxamide]	10 to 50
O=C(N[C@@H]1CC[C@@H](C(=O)N2CC(Oc3ccc(Cl)cc3)C2)OC1)[C@H]1C[C@@H](O)c2cc(Cl)ccc2O1 (racemic) [Compound 122, (2R,4R)-6-chloro-N-(3R,6S)-6-[3-(4-chlorophenoxy)azetidine-1-carbonyl]oxan-3-yl)-4-hydroxy-3,4-dihydro-2H-1-benzopyran-2-carboxamide and (2S,4S)-6-chloro-N-{(3R,6S)-6-[3-(4-chlorophenoxy)azetidine-1-carbonyl]oxan-3-yl}-4-hydroxy-3,4-dihydro-2H-1-benzopyran-2-carboxamide]	10 to 50
O=C(NC12CC(C(=O)NCc3ccc(C(F)(F)F)cn3)(C1)C2)[C@H]1C[C@@H](O)c2cc(Cl)ccc2O1 (racemic) [Compound 123, rac-(2R,4R)-6-chloro-4-hydroxy-N-[3-(([5-(trifluoromethyl)pyridin-2-yl]methyl)carbamoyl)bicyclo[1.1.1]pentan-1-yl]-3,4-dihydro-2H-1-benzopyran-2-carboxamide]	50 to 250
O=C(N[C@H]1CC[C@H](C(=O)NCc2nc3ccc(Cl)cc3[nH]2)CC1)[C@H]1C[C@@H](O)c2cc(Cl)ccc2O1 (racemic) [Compound 126, rac-(2R,4R)-6-chloro-N-[(1r,4R)-4-{[(6-chloro-1H-benzimidazol-2-yl)methyl]carbamoyl}cyclohexyl]-4-hydroxy-3,4-dihydro-2H-1-benzopyran-2-carboxamide]	10 to 50
O=C(NCc1cn2ccc(Cl)cc2n1)[C@@H]1CC[C@@H](NC(=O)[C@@H]2C[C@H](O)c3cc(Cl)ccc3O2)CO1 (racemic) [Compound 131, (2S,4S)-6-chloro-N-[(3R,6S)-6-{[(7-chloroimidazo[1,2-a]pyridin-2-yl)methyl]carbamoyl}oxan-3-yl]-4-hydroxy-3,4-dihydro-2H-1-benzopyran-2-carboxamide and (2R,4R)-6-chloro-N-[(3R,6S)-6-{[(7-chloroimidazo[1,2-a]pyridin-2-yl)methyl]carbamoyl}oxan-3-yl]-4-hydroxy-3,4-dihydro-2H-1-benzopyran-2-carboxamide]	50 to 250
O=C(N[C@H]1CC[C@H](N2CCN(c3cnc(C(F)F)cn3)C2=O)CC1)[C@H]1C[C@@H](O)c2cc(Cl)ccc2O1 (racemic) [Compound 136, rac-(2R,4R)-6-chloro-N-[(1r,4R)-4-{3-[5-(difluoromethyl)pyrazin-2-yl]-2-oxoimidazolidin-1-yl}cyclohexyl]-4-hydroxy-3,4-dihydro-2H-1-benzopyran-2-carboxamide]	50 to 250
O=C(COc1ccc(Cl)c(F)c1)NC1CC2(C1)CN(C(=O)[C@@H]1C[C@H](O)c3cc(Cl)ccc3O1)C2 (racemic) [Compound 145, 2-(4-chloro-3-fluorophenoxy)-N-{2-[rac-(2R,4R)-6-chloro-4-hydroxy-3,4-dihydro-2H-1-benzopyran-2-carbonyl]-2-azaspiro[3.3]heptan-6-yl}acetamide]	50 to 250
O=C(NC12CCC(NC(=O)[C@H]3C[C@@H](OC(F)(F)F)C3)(CC1)[C@@H](O)C2)[C@@H]1C[C@H](O)c2cc(Cl)ccc2O1 (racemic) [Compound 147, (2S,4S)-6-chloro-4-hydroxy-N-[(3S)-3-hydroxy-4-{[(1s,3R)-3-(trifluoromethoxy)cyclobutane-1-carbonyl]amino}bicyclo[2.2.2]octan-1-yl]-3,4-dihydro-2H-1-benzopyran-2-carboxamide and (2R,4R)-6-chloro-4-hydroxy-N-[(3S)-3-hydroxy-4-{[(1s,3R)-3-(trifluoromethoxy)cyclobutane-1-carbonyl]amino}bicyclo[2.2.2]octan-1-yl]-3,4-dihydro-2H-1-benzopyran-2-carboxamide]	250 to 500
